Data taken from patent publication EP0151939A2, “Pyrimidinediones and dihydroxypyrimidines, and process for the preparation of pyrimidinedones and dihydroxypyrimidines” (BAYER AG, priority 1984, dated 1985).

Key:
Assay type in all cases: in vivo
Hafer [1] = assay: Pre-emergence test; conditions: 2 kg/ha, rated after three weeks
Description: (§1) Losungsmittel: 5 Gewichtsteile Aceton Emulgator: 1 Gewichtsteil Alkylarylpolyglykolether
(§2) Zur Herstellung einer zweckmäßigen Wirkstoffzubereitung vermischt man 1 Gewichtsteil Wirkstoff mit der angegebenen Menge Lösungsmittel, gibt die angegebene Menge Emulgator zu und verdünnt das Konzentrat mit Wasser auf die gewünschte Konzentration.
(§3) Samen der Testpflanzen werden in normalen Boden ausgesät und nach 24 Stunden mit der Wirkstoffzubereitung begossen. Dabei hält man die Wassermenge pro Flächeneinheit zweckmäßigerweise konstant. Die Wirkstoffkonzentration in der Zubereitung spielt keine Rolle, entscheidend ist nur die Aufwandmenge des Wirkstoffs pro Flächeneinheit. Nach drei Wochen wird der Schädigungsgrad der Pflanzen bonitiert.

Mais [2] = assay: Pre-emergence test; conditions: 2 kg/ha, rated after three weeks
Description: as §1, §2, §3

Senf [3] = assay: Pre-emergence test; conditions: 2 kg/ha, rated after three weeks
Description: as §1, §2, §3

Weizen [4] = assay: Pre-emergence test; conditions: 2 kg/ha, rated after three weeks
Description: as §1, §2, §3

Rüben [5] = assay: Post-emergence test; conditions: 1 kg/ha, rated after three weeks
Description: as §2, with “Lösungsmittel: 5 Gewichtsteile Aceton Emulgator: 1 Gewichtsteil Alkylarylpolyglykolether Zur” for “Zur”
(§4) Mit der Wirkstoffzubereitung spritzt man Testpflanzen, welche eine Höhe von 5 - 15 cm haben so, daß die jeweils gewünschten Wirkstoffmengen pro Flächeneinheit ausgebracht werden. Die Konzentration der Spritzbrühe wird so gewählt, daß in 2000 1 Wasser/ha die jeweils gewünschten Wirkstoffmengen ausgebracht werden. Nach drei Wochen wird der Schädigungsgrad der Pflanzen bonitiert.

Senf [6] = assay: Post-emergence test; conditions: 1 kg/ha, rated after three weeks
Description: as §2, with “Lösungsmittel: 5 Gewichtsteile Aceton Emulgator: 1 Gewichtsteil Alkylarylpolyglykolether Zur” for “Zur”
as §4

Weizen [7] = assay: Post-emergence test; conditions: 1 kg/ha, rated after three weeks
Description: as §2, with “Lösungsmittel: 5 Gewichtsteile Aceton Emulgator: 1 Gewichtsteil Alkylarylpolyglykolether Zur” for “Zur”
as §4

Hafer [8] = assay: Post-emergence test; conditions: 1 kg/ha, rated after three weeks
Description: as §2, with “Lösungsmittel: 5 Gewichtsteile Aceton Emulgator: 1 Gewichtsteil Alkylarylpolyglykolether Zur” for “Zur”
as §4

Mais [9] = assay: Post-emergence test; conditions: 1 kg/ha, rated after three weeks
Description: as §2, with “Lösungsmittel: 5 Gewichtsteile Aceton Emulgator: 1 Gewichtsteil Alkylarylpolyglykolether Zur” for “Zur”
as §4

Baumwolle = assay: Post-emergence test; conditions: 1 kg/ha, rated after three weeks
Description: as §2, with “Lösungsmittel: 5 Gewichtsteile Aceton Emulgator: 1 Gewichtsteil Alkylarylpolyglykolether Zur” for “Zur”
as §4

Bohnen = assay: Post-emergence test; conditions: 1 kg/ha, rated after three weeks
Description: as §2, with “Lösungsmittel: 5 Gewichtsteile Aceton Emulgator: 1 Gewichtsteil Alkylarylpolyglykolether Zur” for “Zur”
as §4

Rüben [10] = assay: Pre-emergence test; conditions: 2 kg/ha, rated after three weeks
Description: as §1, §2, §3

Hirse = assay: Pre-emergence test; conditions: 2 kg/ha, rated after three weeks
Description: as §1, §2, §3

In the case of `O=c1[nH]c(C(F)(F)F)c(F)c(=O)[nH]1` [Produkt aus Beispiel 5 und 14, 5-Fluor-6-trifluormethyl-2,4-(lH,3H)-pyrimidindion], the “Wirkung (Schädigungsgrad der Pflanzen)” value (Hafer [1]) is reported as “zum größeren Teil ver-nichtet”, the “Wirkung (Schädigungsgrad der Pflanzen)” value (Mais [2]) is reported as “fast nicht” and the “Wirkung (Schädigungsgrad der Pflanzen)” value (Senf [3]) is reported as “zum größeren Teil ver-nichtet”. For the same compound, the “Wirkung (Schädigungsgrad der Pflanzen)” value (Weizen [4]) was “fast nicht”, the “Wirkung (Schädigungsgrad der Pflanzen)” value (Rüben [5]) was “vollständig oder nahezu vollständig vernichtet” and the “Wirkung (Schädigungsgrad der Pflanzen)” value (Senf [6]) was “vollständig oder nahezu vollständig vernichtet”. The “Wirkung (Schädigungsgrad der Pflanzen)” value (Weizen [7]) was “praktisch nicht”.

`O=c1[nH]c(C(F)(F)F)c(Cl)c(=O)[nH]1` [Produkt aus Beispiel 13, 5-Chlor-6-trifluor-2,4-(lH,3H)-pyrimidindion] was tested, and the “Wirkung (Schädigungsgrad der Pflanzen)” value (Hafer [8]) was “praktisch nicht”, the “Wirkung (Schädigungsgrad der Pflanzen)” value (Rüben [5]) was “praktisch nicht” and the “Wirkung (Schädigungsgrad der Pflanzen)” value (Mais [9]) was “voll-ständig oder nahezu vollständig vernichtet”. For the same compound, the “Wirkung (Schädigungsgrad der Pflanzen)” value (Baumwolle) was “voll-ständig oder nahezu vollständig vernichtet”, the “Wirkung (Schädigungsgrad der Pflanzen)” value (Bohnen) was “voll-ständig oder nahezu vollständig vernichtet” and the “Wirkung (Schädigungsgrad der Pflanzen)” value (Senf [6]) was “voll-ständig oder nahezu vollständig vernichtet”. For the same compound, the “Wirkung (Schädigungsgrad der Pflanzen)” value (Weizen [7]) was “praktisch nicht”.

With `O=c1[nH]c(C(F)(F)Cl)c(Cl)c(=O)[nH]1` [Produkt aus Beispiel 15] the “Wirkung (Schädigungsgrad der Pflanzen)” value (Hafer [1]) was “praktisch nicht”, the “Wirkung (Schädigungsgrad der Pflanzen)” value (Rüben [10]) was “nahezu vollständig ver-nichtet” and the “Wirkung (Schädigungsgrad der Pflanzen)” value (Mais [2]) was “praktisch nicht”. For the same compound, the “Wirkung (Schädigungsgrad der Pflanzen)” value (Senf [3]) was “nahezu vollständig ver-nichtet”, the “Wirkung (Schädigungsgrad der Pflanzen)” value (Weizen [4]) was “praktisch nicht” and the “Wirkung (Schädigungsgrad der Pflanzen)” value (Hafer [8]) was “praktisch nicht”. For the same compound, the “Wirkung (Schädigungsgrad der Pflanzen)” value (Mais [9]) was “praktisch nicht”, the “Wirkung (Schädigungsgrad der Pflanzen)” value (Senf [6]) was “vollständig vernichtet” and the “Wirkung (Schädigungsgrad der Pflanzen)” value (Weizen [7]) was “praktisch nicht”.

With `O=c1[nH]c(C(F)(Cl)Cl)c(Cl)c(=O)[nH]1` [Produkt aus Beispiel 16] the “Wirkung (Schädigungsgrad der Pflanzen)” value (Hafer [1]) was “praktisch nicht”, the “Wirkung (Schädigungsgrad der Pflanzen)” value (Mais [2]) was “praktisch nicht” and the “Wirkung (Schädigungsgrad der Pflanzen)” value (Hirse) was “praktisch nicht”. The “Wirkung (Schädigungsgrad der Pflanzen)” value (Senf [3]) was “zum größeren Teil vernichtet” and the “Wirkung (Schädigungsgrad der Pflanzen)” value (Weizen [4]) was “praktisch nicht”.
